“Also recorded” adds a separate entry of the source. Read-outs that look alike come from different tables or passages of the source. Bounds are passed on as bounds.

Results on two molecules are retold here after patent US20210244712A1, “METHODS FOR TREATING PATIENTS WITH CANCER HAVING DEFECTS IN CYCLIN D REGULATION” (NysnoBio Ireland DAC, priority 2018, published 2021).

One series has as its system A549. The series can be described thus: Cell proliferation assay. In kind it is cell-based. Conditions: Homo sapiens. The procedure: (§1) Measurement of the inhibitive effect of compounds on cancer cell proliferation was performed. The assays were performed under the following conditions: Cells are harvested at a concentration of 4×10^4 cells/ml in media. Volumes of 100 μL/well of these cell suspensions were added to a 96 well plate using a multichannel pipette. Plates were gently agitated to ensure an even dispersion of cells over a given plate. Cells were then incubated at 37° C., 5% CO2 overnight. Following this, 100 μL of compound at varying concentrations was added to wells in triplicate. Control wells are those with 100 μL media containing 0.33% DMSO added to cell suspension (this is the equivalent volume of DMSO found in the highest concentration of drug). Plates were then gently agitated, as above, and incubated at 37° C., 5% CO2 for 72 hrs (control wells have reached 80-90% confluency). Assessment of cell proliferation in the presence of Compounds C and F was determined by the acid phosphatase assay.
(§2) Following the incubation period of 72 hrs, media was removed from the plates. Each well on the plate was washed twice with 100 μL PBS. This was then removed and 100 μL of freshly prepared phosphatase substrate (10 mM p-nitrophenol phosphate in 0.1M sodium acetate, 0.1% triton X-100, pH 5.5) was added to each well. The plates were then incubated in the dark at 37° C. for 2 hours. Color development was monitored during this time. The enzymatic reaction was stopped by the addition of 50 μL of 1N NaOH. The plate was read in a dual beam plate reader at 405 nm with a reference wavelength of 620 nm. The absorbance reading of the latter is subtracted from the former, and the effect of the drug on cell proliferation was then measured as a percentage against the control cells (DMSO), which is taken as 0% inhibition.

The next series concerns HCT 116. The series can be described thus: Cell proliferation assay. Conditions: Homo sapiens. Format: cell-based. The procedure:
as §1, §2

In another series the test system is Jeko-1. Put plainly: Cell proliferation assay. In kind it is cell-based. Conditions: Homo sapiens; for IC50: Mantle Cell Jeko-1, overexpression of Cyclin D. As to the method: as §1, §2
A further series deals with OAW42. The series can be described thus: Cell proliferation assay. In kind it is cell-based. Conditions: Homo sapiens, OAW-42; for IC50: Ovarian OAW42. As to the method:
as §1, §2

In another series the test system is TOV-112D. Put plainly: Cell proliferation assay. Format: cell-based. As to conditions: Homo sapiens. The procedure:
as §1, §2

The test system of the next series is TOV-21G. The series can be described thus: Cell proliferation assay. In kind it is cell-based. As to conditions: Homo sapiens. As to the method:
as §1, §2

For the next series, the system named is cyclin D1. Put plainly: Western blot of Cyclin D1, Example 6B. Format: cell-based. Conditions: 24 h, compared to control (DMSO). The procedure:
Cells were plated at a density of 3×10^5 cells/well for 24 hrs. Representative compounds or DMSO alone was then added to the wells for 24 h at 250 nM (note: Compound F was administered at a concentration of 2 μM). Cells were trypsinised, pelleted, washed ×3 in PBS, and lysed using a 2% SDS lysis solution (Sigma—05030).
Western blot analysis was then carried out to look at Cyclin D1 (Abeam—ab134175), PRK8 (Sigma—P6248), Rb (Abeam—[…]) and GAPDH (Sigma—G9545) levels.

A further series concerns HCT-116 xenograft. The series can be described thus: Subcutaneous HCT-116 xenograft model, tumor volume. Format: in vivo, nude mice. Conditions: vs control. As to the method: The efficacy of Compound 42, Compound F, and Compound Q3 were evaluated in the treatment of subcutaneous HCT-116 xenograft model in nude mice.
Cell Culture: HCT-116 tumor cell lines were maintained in vitro as a monolayer culture in DMEM medium supplemented with 10% fetal bovine serum at 37° C. in an atmosphere of 5% CO2 in air. The tumor cells were routinely subcultured twice weekly by trypsin-EDTA treatment (0.05% Trypsin-EDTA) and 1:4 split: The cells in an exponential growth phase were harvested and counted for tumor inoculation.
Tumor Inoculation: Each, mouse was inoculated subcutaneously at the flank region with HCT-1.16 cells (1.0×106) in 0.1 ml of 1×PBS mixed with Matrigel (1:1) for tumor development. The day Xenotransplantation was performed is denoted as day 0.
Thirty (30) animals with approx 100-150 mm^3 tumors were selected for HCT-116 follow up experiment and randomly placed Into Groups 1, 2, […], 4, 5, and 6 as shown in Table 8.
Group Assignment: Before grouping and treatment, all animals were weighed and fee tumor volumes were confirmed (100-150 mm^3) using electronic caliper. Since the tumor volume can affect fee effectiveness of any given treatment mice into groups using randomized block design as following: First the experimental animals were divided into homogeneous blocks based on their tumor volume. Secondly, within each block, randomization of experimental animals to different groups By using randomized block design to assign experimental animals, we ensure that each animal has the same probability of being assigned to any given treatment groups and therefore systematic error is minimized.
(§3) Treatments were initiated when turner volume reached 100-150 mm^3. Treatments started on Day 5. Test compounds were administered intraperitoneally (II′) in 10 mg/mL solution comprising 10% N,N-dimethyl acetamide, 15% macrogol 15 hydroxy stearate, polyethylene glycol-15-hydroxystearate, and 75% aqueous hydroxypropyl-beta-cyclodextrin.
(§4) Observation and data collection: After tumor cells inoculation, the animals were checked daily for morbidity and mortality. At the time of routine monitoring, the animals were checked for any adverse effects of tumor growth and treatments on normal behavior such as mobility, visual estimation of food and water consumption, body weight gain/loss, eye/hair matting and any other abnormal effects, Death and observed clinical signs were recorded, per […] IACUC. Tumor volumes were measured every 3-4 days in two dimensions using an electronic caliper, sad the volume data are expressed in, mm3 using the formula: V=0.5 a×b^2 where a and b are fee long and short diameters of the tumor, respectively. Dosing and tumor volume measurement procedures were conducted in a Laminar Flow Cabinet according to Altogen Labs IACUC regulations.
Statistics: Summary statistics, the mean and the standard error of the mean (SEM), are provided for the tumor volume of each group at each time point. Statistical analysis of difference in tumor volume among the groups and the analysis of drug interaction were conducted on the data obtained after the final dose.

Series [1] in a line: HCT-116 xenograft model, body weight and adverse events. Format: in vivo. As to conditions: for weight loss or adverse events: Groups 2-6 of Table 8, IP daily for 20 days; for body weight: throughout the duration of the study, Compound 42 1 and 5 mg/kg, Compound F 10 or 25 mg/kg. The procedure: as §3, §4
Body weight loss daring fee study: Sacrifice fee mouse when one measurement of body weight loss (BWL)>20% (only for control animals). Animal research associated wife this study was conducted under Altogen Labs IACUC regulatory space. Altogen Labs IACUC guidelines were followed in case of BWL and any other conditions.

The mark [2] stands for this setting: CRC HCT-116, loss of p16 (mutant p53), read-out: Proliferation IC50.
Setting [3] is: Ovarian TOV112D, loss of p16 (mutant p53), read-out: Proliferation IC50.
The mark [4] stands for this setting: Ovarian TOV21G, read-out: Proliferation IC50.
[5] abbreviates: Groups 2-6 of Table 8 (Compound 42 1 and 5, Q3 5 and 15, F 25 mg/kg), IP daily for 20 days, 28 days.

Turning to `Cc1ccccc1C(=O)Nc1nc(NC(=O)c2ccccc2C)n(-c2ccc(OC(F)(F)F)cc2)n1` [Compound 42, N,N′-(1-(4-(trifluoromethoxy)phenyl)-1H-1,2,4-triazole-3,5-diyl)bis(2-methylbenzamide)], the EC50 in the series on A549 (Table 7a, Lung (A549)) turned out to be 72 nM; with HCT 116 (Table 7a, Colon (HCT-116), read-out: EC50) it was 87 nM; with Jeko-1 (Table 7a, Mantle Cell (Jeko-1)), 154 nM; with OAW42 (Table 7a, Ovarian (OAW42)), 166 nM; in the series with TOV-112D (Table 7a, Ovarian (TOV112D), read-out: EC50), 98 nM; in the series on TOV-21G (Table 7a, Ovarian (TOV21G)) it was 74 nM. Further, the IC50 with HCT 116 (setting [2]) came to 87 nM; with Jeko-1 it was 154 nM; in the series with OAW42, 166 nM; in the series with TOV-112D (setting [3]) it was 103 nM; in the series on TOV-21G (setting [4]), 109 nM. Also, the “Cyclin D1 expression” value in the series on cyclin D1 (HCT-116, 250 nM) is reported as “reduction of Cyclin D1 expression”; in the series with cyclin D1 (TOV-112, 250 nM) it was “reduction of Cyclin D1 expression”. Further, the “tumor growth (tumor volume)” value in the series with HCT-116 xenograft (1 mg/kg, IP, over 28 days) is “reduce tumor growth”; in the series with HCT-116 xenograft (5 mg/kg, IP, over 28 days), “reduce tumor growth”; with HCT-116 xenograft (setting [5]), “reduce the tumor growth”. Besides, the “weight loss or adverse events” value in series [1] is on record as “No weight loss or any adverse events”. The body weight result in series [1] is on record as “maintained body weight”.

On to `Cc1ccccc1C(=O)Nc1nc(NC(=O)c2ccccc2C)n(-c2ccccc2)n1` [Compound F, 2-methyl-N-[5-[(2-methylbenzoyl)amino]-1-phenyl-1,2,4-triazol-3-yl]benzamide], for which the IC50 in the series with A549 (A549, 72 hrs, read-out: Cell Viability: IC50) is 7540 nM; with HCT 116 (setting [2]), 1300 nM; in the series with HCT 116 (HCT 116, 72 hrs, read-out: Cell Viability: IC50), 2000 nM; in the series with Jeko-1, above 2500 nM; in the series on OAW42, above 2500 nM; with TOV-112D (TOV112D, TOV-112D, 72 hrs, read-out: Cell Viability: IC50), 990 nM. For the same molecule, the IC50 in the series on TOV-112D (setting [3]) is 850 nM; with TOV-21G (TOV21G, TOV-21G, 72 hrs, read-out: Cell Viability: IC50), 1160 nM; in the series on TOV-21G (setting [4]), 1500 nM. The “Cyclin D1 expression” value with cyclin D1 (HCT-116, 2 μM) is given as “reduction of Cyclin D1 expression”; with cyclin D1 (TOV-112, 2 μM), “reduction of Cyclin D1 expression”. Moreover, the “tumor growth (tumor volume)” value in the series with HCT-116 xenograft (10 mg/kg, over 28 days) is reported as “substantially reduce tumor growth”; with HCT-116 xenograft (25 mg/kg, IP, over 28 days) it was “most substantially reduced; also recorded: substantially reduce tumor growth”; with HCT-116 xenograft (setting [5]), “reduce the tumor growth”. Besides, the “weight loss or adverse events” value in series [1] is “No weight loss or any adverse events”. Besides, the body weight result in [1] is “maintained body weight”.
